ChEMBL document CHEMBL4823249, “Discovery of a Pyrimidinedione Derivative as a Potent and Orally Bioavailable Axl Inhibitor” (J Med Chem, 2021)
Activity calls are given as the source filed them. No cut-off for these calls is given here.

What was measured:
MDA-MB-231 = test: Antiproliferative activity against human MDA-MB-231 cells incubated for 72 hrs by SRB or CCK8 assay; assay type: functional, cell-based; details: MDA-MB-231, 72 h
[1] = Oral availability in ICR mouse at 3 mg/kg measured upto 24 hrs by LC-MS analysis; assay type: ADME, organism-based; details: in vivo
[2] = Half life in ICR mouse at 1 mg/kg, iv measured upto 24 hrs by LC-MS analysis; assay type: ADME, organism-based; details: in vivo
[3] = molecular target: Mast/stem cell growth factor receptor Kit (Homo sapiens, UniProt P10721); test: Inhibition of recombinant human C-Kit using poly(Glu, Tyr) 4:1 as substrate incubated for 40 mins in presence of [gamma-33ATP] by scintillation counting based radiometry assay
[4] = molecular target: Hepatocyte growth factor receptor (Homo sapiens, UniProt P08581); test: Inhibition of MET signaling in human EBC1 cells assessed as reduction in phosphorylation of ERK after 2 hrs by Western blotting analysis; assay type: cell-based; details: EBC-1, dose 10-100 nM
NCI-H1299 = test: Antiproliferative activity against human NCI-H1299 cells at 5 to 125 uM incubated for 72 hrs by SRB or CCK8 assay; assay type: functional, cell-based; details: dose 5-125 µM
BaF3 [5] = test: Antitumor activity against mouse BaF3/TEL-AXL cells xenografted in BALB/c nude mouse assessed as tumor growth inhibition at 1 mg/kg, po administered once daily for 14 days by caliper method; assay type: functional; details: 336 h, time 14 day, read-out: TGI
[6] = molecular target: T1, Tyrosine-protein kinase receptor UFO (Homo sapiens, UniProt P30530); test: Inhibition of AXL (unknown origin) using poly [Glu, Tyr] 4:1 as substrate incubated for 60 mins in presence of ATP by ELISA
T1 sequence (P30530 whole entry): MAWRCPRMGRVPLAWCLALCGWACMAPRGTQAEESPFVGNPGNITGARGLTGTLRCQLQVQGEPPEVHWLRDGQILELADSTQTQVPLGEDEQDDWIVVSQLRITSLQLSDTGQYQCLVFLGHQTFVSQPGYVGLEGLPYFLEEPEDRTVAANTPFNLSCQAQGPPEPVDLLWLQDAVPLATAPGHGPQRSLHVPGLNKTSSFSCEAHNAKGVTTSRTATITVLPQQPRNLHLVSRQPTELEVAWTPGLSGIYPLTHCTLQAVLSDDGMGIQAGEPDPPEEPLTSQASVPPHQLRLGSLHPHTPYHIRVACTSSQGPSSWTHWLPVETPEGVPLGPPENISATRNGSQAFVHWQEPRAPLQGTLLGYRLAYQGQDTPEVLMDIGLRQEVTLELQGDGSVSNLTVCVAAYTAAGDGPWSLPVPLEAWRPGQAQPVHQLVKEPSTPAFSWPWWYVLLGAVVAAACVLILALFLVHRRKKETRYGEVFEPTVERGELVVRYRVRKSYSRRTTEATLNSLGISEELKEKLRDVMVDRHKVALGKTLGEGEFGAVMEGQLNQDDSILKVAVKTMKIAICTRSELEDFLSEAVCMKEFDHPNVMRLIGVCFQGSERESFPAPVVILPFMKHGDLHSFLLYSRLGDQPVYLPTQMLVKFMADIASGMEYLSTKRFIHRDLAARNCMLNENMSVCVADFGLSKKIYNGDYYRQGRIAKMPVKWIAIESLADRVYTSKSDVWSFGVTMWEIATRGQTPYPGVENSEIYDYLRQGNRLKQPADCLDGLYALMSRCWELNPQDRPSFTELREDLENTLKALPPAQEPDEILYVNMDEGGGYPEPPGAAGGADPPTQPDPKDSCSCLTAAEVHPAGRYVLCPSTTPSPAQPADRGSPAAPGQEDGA

[7] = AUC(0 to infinity) in ICR mouse at 1 mg/kg, iv measured upto 24 hrs by LC-MS analysis; assay type: ADME, organism-based; design: route intravenous, dose 1 mg/kg, time <=24; details: in vivo
[8] = Cmax in Sprague-Dawley rat at 3 mg/kg, po measured upto 24 hrs by LC-MS analysis; assay type: ADME, organism-based; design: route oral, dose 3 mg/kg, time <=24; details: in vivo
BaF3 [9] = test: Antiproliferative activity against mouse BaF3/TEL-AXL cells incubated for 72 hrs by SRB or CCK8 assay; details: BaF3, 72 h
U-87 MG = test: Antitumor activity against human U-87MG cells xenografted in po dosed BALB/c nude mouse assessed as tumor growth inhibition administered once daily for 14 days by caliper method; assay type: functional, organism-based; details: U-87MG ATCC, dose 5-100 mg/kg, time 14.0 day
EBC-1 = test: Antiproliferative activity against human EBC-1 cells incubated for 72 hrs by SRB or CCK8 assay; assay type: functional, cell-based; details: EBC-1, 72 h
MM1.S = test: Antiproliferative activity against human MM1.S cells incubated for 72 hrs by SRB or CCK8 assay; assay type: functional, cell-based
[10] = molecular target: T2, Tyrosine-protein kinase receptor UFO (Mus musculus) (UniProt Q00993); test: Inhibition of AXL in mouse BaF3/TEL-AXL cells assessed as reduction in Gas6-induced phosphorylation of AKT at 0.5 to 50 nM preincubated for 2 hrs followed by Gas6 stimulation for 15 mins by Western blotting analysis; assay type: cell-based; details: dose 0.5-50 nM
T2 sequence (whole entry): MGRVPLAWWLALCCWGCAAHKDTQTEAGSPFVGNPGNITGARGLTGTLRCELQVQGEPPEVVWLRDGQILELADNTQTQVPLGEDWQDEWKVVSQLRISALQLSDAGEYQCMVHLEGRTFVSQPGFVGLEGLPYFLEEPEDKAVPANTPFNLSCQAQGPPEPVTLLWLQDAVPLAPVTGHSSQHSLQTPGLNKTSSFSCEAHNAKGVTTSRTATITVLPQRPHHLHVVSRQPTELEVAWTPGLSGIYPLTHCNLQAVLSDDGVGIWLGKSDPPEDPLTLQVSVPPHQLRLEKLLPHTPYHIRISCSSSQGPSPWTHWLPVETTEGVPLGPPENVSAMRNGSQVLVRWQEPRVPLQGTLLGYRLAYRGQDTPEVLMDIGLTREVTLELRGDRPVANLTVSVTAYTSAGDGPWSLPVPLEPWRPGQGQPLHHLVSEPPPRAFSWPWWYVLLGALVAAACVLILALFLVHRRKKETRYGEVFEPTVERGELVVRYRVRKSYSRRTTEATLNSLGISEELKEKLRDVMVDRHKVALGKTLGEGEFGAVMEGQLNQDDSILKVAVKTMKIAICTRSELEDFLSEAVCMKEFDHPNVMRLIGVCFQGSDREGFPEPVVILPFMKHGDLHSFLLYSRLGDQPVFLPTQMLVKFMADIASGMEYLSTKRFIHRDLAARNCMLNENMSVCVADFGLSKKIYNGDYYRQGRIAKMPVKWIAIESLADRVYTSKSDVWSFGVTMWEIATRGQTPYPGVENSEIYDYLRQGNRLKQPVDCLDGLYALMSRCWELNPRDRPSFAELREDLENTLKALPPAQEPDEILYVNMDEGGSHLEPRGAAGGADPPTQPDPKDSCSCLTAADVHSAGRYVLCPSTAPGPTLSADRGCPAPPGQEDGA

[11] = molecular target: Dual specificity protein kinase CLK1 (Homo sapiens, UniProt P49759); test: Inhibition of human recombinant CLK1 (130 to end residues) using ERMRPRKRQGSVR as substrate incubated for 40 mins in presence of [gamma-33ATP] by radiometric scintillation counting analysis
Dual specificity protein kinase CLK1, sequence (P49759 whole entry): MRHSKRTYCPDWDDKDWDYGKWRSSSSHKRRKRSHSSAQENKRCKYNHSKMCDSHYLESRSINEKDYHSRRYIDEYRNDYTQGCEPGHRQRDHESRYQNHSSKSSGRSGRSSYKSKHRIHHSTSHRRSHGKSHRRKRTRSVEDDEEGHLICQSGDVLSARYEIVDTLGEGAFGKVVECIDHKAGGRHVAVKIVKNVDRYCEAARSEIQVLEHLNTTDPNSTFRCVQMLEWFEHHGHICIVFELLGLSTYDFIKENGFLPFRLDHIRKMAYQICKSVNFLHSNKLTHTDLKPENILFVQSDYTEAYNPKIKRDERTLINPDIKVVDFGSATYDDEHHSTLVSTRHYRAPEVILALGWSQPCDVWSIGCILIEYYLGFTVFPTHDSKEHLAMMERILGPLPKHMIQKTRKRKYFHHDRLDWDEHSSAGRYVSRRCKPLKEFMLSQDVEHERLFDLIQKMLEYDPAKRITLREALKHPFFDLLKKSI

Mast/stem cell growth factor receptor Kit, sequence (P10721 whole entry): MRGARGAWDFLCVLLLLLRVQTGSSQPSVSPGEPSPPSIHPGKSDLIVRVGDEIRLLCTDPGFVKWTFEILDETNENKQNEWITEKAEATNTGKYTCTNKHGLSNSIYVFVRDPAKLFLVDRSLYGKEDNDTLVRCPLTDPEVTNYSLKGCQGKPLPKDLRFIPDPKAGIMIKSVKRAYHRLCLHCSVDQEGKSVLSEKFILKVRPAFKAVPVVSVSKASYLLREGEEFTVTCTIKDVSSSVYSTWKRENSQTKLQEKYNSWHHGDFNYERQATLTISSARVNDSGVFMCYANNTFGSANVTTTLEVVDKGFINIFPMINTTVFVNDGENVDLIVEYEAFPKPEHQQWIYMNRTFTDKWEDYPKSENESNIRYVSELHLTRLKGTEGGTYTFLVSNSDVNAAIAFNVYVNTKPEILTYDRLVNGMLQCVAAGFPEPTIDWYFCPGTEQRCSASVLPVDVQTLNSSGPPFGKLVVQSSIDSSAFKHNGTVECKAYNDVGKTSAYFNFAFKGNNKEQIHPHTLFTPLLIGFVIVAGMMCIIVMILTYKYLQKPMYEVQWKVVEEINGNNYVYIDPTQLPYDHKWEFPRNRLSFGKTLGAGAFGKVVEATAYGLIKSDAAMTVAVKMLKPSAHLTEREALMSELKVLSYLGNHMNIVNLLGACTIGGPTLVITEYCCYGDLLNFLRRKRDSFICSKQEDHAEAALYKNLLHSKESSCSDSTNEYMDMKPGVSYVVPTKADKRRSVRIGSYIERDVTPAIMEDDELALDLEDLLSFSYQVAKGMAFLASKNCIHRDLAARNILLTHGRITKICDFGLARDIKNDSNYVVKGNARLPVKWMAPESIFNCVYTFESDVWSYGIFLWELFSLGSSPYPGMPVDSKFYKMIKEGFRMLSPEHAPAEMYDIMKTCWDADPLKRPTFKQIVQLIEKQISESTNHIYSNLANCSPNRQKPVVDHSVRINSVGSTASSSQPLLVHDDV
Hepatocyte growth factor receptor, sequence (P08581 whole entry): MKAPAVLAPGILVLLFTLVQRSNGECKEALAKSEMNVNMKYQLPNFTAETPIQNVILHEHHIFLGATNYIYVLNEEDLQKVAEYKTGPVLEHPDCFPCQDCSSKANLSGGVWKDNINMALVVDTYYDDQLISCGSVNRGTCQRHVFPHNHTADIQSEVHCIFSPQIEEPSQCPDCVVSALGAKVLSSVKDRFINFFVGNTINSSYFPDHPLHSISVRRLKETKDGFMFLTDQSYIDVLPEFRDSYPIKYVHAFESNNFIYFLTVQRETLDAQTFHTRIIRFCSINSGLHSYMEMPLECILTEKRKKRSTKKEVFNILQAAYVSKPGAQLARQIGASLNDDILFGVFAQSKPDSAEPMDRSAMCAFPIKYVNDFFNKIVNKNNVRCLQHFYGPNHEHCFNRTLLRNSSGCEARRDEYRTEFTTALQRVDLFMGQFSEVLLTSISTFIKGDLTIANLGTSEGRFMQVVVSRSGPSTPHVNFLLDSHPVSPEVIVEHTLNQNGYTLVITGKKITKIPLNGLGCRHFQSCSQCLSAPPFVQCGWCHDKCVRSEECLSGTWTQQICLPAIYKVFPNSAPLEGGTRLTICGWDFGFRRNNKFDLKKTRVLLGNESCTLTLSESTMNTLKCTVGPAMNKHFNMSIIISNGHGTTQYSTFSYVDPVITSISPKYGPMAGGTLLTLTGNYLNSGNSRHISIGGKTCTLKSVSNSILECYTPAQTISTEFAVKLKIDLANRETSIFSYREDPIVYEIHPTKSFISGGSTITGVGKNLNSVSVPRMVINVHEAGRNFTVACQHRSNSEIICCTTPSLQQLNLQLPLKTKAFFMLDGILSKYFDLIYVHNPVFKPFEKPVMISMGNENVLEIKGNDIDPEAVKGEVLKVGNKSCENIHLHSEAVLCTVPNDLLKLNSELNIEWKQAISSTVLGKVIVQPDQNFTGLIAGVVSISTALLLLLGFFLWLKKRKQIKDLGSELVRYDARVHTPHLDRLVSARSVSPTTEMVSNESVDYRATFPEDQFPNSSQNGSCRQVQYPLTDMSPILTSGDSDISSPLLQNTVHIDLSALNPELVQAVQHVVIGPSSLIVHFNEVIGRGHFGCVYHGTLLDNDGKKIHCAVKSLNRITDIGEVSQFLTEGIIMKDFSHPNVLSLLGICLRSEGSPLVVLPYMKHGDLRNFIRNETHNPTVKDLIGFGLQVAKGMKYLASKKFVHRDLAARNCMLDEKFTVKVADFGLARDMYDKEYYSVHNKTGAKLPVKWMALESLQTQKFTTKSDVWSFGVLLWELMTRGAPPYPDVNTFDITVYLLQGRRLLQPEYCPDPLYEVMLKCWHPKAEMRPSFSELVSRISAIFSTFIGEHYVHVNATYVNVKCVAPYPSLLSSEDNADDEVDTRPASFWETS

- IC50 (MDA-MB-231): > 10000 nM
- bioavailability [1]: 114%
- half-life [2]: 5.57 h
- IC50 [3]: > 1000 nM
- inhibition [4]: Dose-Dependent Effect
- IC50 [6]: 0.9 nM
- AUC(0-inf) [7]: 7360 ng·h/mL
- Cmax [8]: 4560 ng/mL
- IC50 (BaF3 [9]): < 0.005 nM
- IC50 (MM1.S): > 10000 nM
- inhibition [10]: Active
- IC50 [11]: > 1000 nM
Compound: CC(C)n1cc(C(=O)Nc2ccc(Oc3ccnc(NC(=O)C4CC4)c3)c(F)c2)c(=O)n(-c2ccc(F)cc2)c1=O
- Activity (NCI-H1299): inactive
- inhibition in vivo at 1 mg/kg (BaF3 [5]): 90.9%
- Activity (U-87 MG): Dose-Dependent Effect
- IC50 (EBC-1): 64 nM
